Laboratory results: patent publication US20220041597A1 (FORMA Therapeutics, Inc., priority 2018, published 2022)
pIC50: −log10 of the molar value.

Biological target: USP9X (Homo sapiens, UniProt Q93008)
Experiment: Biochemical Assay for USP9X Inhibition (Ub-Rh110 fluorescence)
Details: Ub-Rh110 25 nM, 30 min preincubation
Protocol: Concentration and incubation times were optimized for the maximal signal-to-background while maintaining initial velocity conditions at a fixed substrate concentration (<<Km). […] To assay plates (pre-stamped with compound) was added 3 μL 2× Enzyme. The enzyme was preincubated for 30 minutes and then treated with 3 μL of 2× Substrate. […] The slope (best fit linear regression) of the five reads was used to normalize for inhibition. For all assays, data are reported as percent inhibition compared with control wells based on the following equation: […], wherein FLU is measured Fluorescence, AveLow is average Fluorescence of no enzyme control (n=64), and AveHigh is average Fluorescence of DMSO control (n=64). IC50 values are determined by curve fitting of the standard 4 parameter logistic fitting algorithm included in the Activity Base software package: IDBS XE Designer Model205. Data are fitted using the Levenburg Marquardt algorithm.

USP9X, sequence (Q93008 whole entry): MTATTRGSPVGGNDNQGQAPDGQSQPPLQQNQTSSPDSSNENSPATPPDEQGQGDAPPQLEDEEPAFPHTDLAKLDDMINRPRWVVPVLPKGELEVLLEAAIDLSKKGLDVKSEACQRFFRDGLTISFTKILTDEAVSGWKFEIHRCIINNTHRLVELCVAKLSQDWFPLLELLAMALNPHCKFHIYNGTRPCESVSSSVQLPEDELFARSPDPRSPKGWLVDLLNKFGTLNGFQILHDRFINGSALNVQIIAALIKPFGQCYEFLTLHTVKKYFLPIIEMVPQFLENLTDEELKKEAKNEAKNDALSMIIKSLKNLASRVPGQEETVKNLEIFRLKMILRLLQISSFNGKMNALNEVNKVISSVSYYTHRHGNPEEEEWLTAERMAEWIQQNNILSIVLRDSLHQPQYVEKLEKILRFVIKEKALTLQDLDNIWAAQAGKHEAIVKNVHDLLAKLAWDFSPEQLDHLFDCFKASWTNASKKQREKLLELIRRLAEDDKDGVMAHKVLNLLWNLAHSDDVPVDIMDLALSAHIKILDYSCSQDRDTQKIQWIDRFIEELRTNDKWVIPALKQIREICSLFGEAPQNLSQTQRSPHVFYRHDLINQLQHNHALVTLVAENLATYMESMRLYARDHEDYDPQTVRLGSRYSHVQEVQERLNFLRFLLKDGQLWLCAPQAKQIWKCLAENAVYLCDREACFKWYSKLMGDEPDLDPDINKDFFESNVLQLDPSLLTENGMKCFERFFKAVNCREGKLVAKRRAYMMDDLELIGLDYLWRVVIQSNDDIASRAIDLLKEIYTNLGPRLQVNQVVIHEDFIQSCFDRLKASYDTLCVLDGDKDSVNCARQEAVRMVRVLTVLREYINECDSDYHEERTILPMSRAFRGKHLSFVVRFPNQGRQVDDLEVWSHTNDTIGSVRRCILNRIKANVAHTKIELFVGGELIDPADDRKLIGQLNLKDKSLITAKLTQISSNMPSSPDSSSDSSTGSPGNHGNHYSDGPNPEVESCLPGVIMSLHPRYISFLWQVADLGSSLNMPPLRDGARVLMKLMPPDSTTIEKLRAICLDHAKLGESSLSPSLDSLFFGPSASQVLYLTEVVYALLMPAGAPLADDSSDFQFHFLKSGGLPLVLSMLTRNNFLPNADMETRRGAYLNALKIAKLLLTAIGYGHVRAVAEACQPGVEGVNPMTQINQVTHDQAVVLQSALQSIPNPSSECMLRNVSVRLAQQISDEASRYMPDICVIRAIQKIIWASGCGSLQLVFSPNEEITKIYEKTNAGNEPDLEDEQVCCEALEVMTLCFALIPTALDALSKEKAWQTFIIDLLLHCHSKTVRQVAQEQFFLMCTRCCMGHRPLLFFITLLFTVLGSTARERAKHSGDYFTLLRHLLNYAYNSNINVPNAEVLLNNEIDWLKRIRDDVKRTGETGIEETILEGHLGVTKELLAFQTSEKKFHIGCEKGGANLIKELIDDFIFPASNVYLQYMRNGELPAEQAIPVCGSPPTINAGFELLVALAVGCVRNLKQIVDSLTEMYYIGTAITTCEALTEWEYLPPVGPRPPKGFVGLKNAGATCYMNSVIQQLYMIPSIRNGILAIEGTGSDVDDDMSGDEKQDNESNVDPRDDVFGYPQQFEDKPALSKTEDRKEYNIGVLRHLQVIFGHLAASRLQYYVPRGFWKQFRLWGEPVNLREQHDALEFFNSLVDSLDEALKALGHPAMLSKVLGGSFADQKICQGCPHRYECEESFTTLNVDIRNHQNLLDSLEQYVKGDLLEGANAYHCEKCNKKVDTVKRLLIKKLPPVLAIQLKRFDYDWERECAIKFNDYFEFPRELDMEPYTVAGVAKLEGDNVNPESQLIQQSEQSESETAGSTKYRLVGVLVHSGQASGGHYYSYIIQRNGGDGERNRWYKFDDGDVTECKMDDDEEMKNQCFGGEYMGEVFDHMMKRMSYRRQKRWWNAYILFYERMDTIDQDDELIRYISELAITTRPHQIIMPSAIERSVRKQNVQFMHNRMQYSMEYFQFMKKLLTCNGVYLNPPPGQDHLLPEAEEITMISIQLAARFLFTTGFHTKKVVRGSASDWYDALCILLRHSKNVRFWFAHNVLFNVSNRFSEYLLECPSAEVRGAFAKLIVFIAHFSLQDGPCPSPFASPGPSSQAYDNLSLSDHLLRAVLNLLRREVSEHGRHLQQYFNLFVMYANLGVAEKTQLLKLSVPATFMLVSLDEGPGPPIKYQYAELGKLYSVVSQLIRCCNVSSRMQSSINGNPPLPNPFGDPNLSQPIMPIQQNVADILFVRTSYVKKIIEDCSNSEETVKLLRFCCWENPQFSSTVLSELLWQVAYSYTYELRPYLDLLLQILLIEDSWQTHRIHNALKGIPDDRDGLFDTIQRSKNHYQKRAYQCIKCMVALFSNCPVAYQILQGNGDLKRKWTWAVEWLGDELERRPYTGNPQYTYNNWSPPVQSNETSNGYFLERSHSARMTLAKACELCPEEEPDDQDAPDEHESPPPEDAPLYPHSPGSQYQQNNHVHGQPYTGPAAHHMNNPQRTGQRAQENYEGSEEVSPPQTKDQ

In the case of `CN1CCC(Oc2cccc(C(O)c3cc4c(cn3)CN(S(=O)(=O)c3ccc(-c5ncco5)cc3)C4)c2)CC1` (single isomer, unassigned) [Example 78], the pIC50 (USP9X 0.025 nM) was 7.00 to 9.00.

Work on `CN1CCC(Oc2cccc(C(O)c3cc4c(cn3)CN(S(=O)(=O)c3ccc(-c5ncco5)cc3)C4)c2)CC1` (single isomer, unassigned) [Example 79] yielded a pIC50 (USP9X […]) of 7.00 to 9.00.

With `O=S(=O)(c1ccc(-n2ccnc2)cc1)N1Cc2cnc(C(O)c3ccccc3)cc2C1` (centres unmarked) [Example 19] the pIC50 (USP9X 0.025 nM) was less than 4.60.

For `O=S(=O)(C1CCN(c2nccs2)CC1)N1Cc2cnc(C(O)c3ccccc3)cc2C1` (centres unmarked) [Example 24], the pIC50 (USP9X 0.025 nM) was less than 4.60.

With `O=S(=O)(C1CCN(c2ncco2)CC1)N1Cc2cnc(C(O)c3ccccc3)cc2C1` (centres unmarked) [Example 32, (2-{[1-(1,3-oxazol-2-yl)piperidin-4-yl]sulfonyl}-1H,2H,3H-pyrrolo[3,4-c]pyridine-6-yl)(phenyl)methanol] the pIC50 (USP9X 0.025 nM) was less than 4.60.
